# According to publication PMC5983823, “Screening of Natural Product Derivatives Identifies Two Structurally Related Flavonoids as Potent Quorum Sensing Inhibitors against Gram-Negative Bacteria” (International Journal of Molecular Sciences, 2018):
# Experiments:
# [1] = test system: human lung (HL) epithelial cells; test: Cytotoxicity testing (CellTiter Glo); assay type: cell-based; conditions: 24 h exposure
# Method: (§1) Human lung (HL) epithelial cells were grown in RPMI 1640 (Biowhittaker, Lonza, Viewers, Bornem, Belgium) supplemented with 10% inactivated fetal bovine serum (FBS), 2 mM L-glutamine and gentamycin 20 µg/mL, and mouse monocyte macrophage RAW 264.7 cells in DMEM medium supplemented with 10% FBS and 20 µg/mL gentamycin. Cells (3 × 10^5 cells/mL) were seeded into 96-microtiter well plates (Cellstar TC, Greiner Bio-One GmbH, Frickenhausen, Germany), 200 µL per well, and incubated at 37 °C in 5% CO2 24 h before exposure to the compounds. After the incubation, culture medium was discarded, the wells were washed with PBS, and the compound dilutions prepared in culture media were added as triplicates to a final volume of 200 µL. Usnic acid (200 µM, Sigma Aldrich, St. Louis, MO, USA) was included as positive control and DMSO (1%) as solvent control. Plates were incubated for additional 24 h. At the end of 24 h, media was removed, wells were washed twice with PBS and 100 µL of PBS was added. CellTiter Glo® reagent (Promega, Madison, WI, USA) was prepared according to manufacturer’s instructions, and 100 µL was added to the wells. The plates were shaken for two minutes and equilibrated at room temperature for 10 min prior to measuring the luminescence using Varioskan LUX multimode plate reader (Thermo Scientific, Vantaa, Finland). Inhibition of cell viability was calculated in relation to the untreated cells.
# [2] = test system: mouse monocyte macrophage (RAW 264.7) cells; test: Cytotoxicity testing (CellTiter Glo); assay type: cell-based; conditions: 24 h exposure
# Method: as §1
# [3] = test system: P. aeruginosa PAO1; test: Swarming motility assay; assay type: cell-based; conditions: Pseudomonas aeruginosa, PAO1, read-out: Inhibition of swarming motility
# Method: (§2) Assays were performed according to the protocols previously described in [30, 74] with some modifications. The swarming agar was prepared in MQ-water consisting of 0.3% (w/v) agar, 1% (w/v) peptone, 0.5% (w/v) yeast extract and 0.5% (w/v) sodium chloride, and the swimming agar similarly but without yeast extract. Compounds at a final concentration of 400 µM and 100 µM were pre-mixed with 5 mL of agar, and poured over solidified LB agar plates (10 mL/petri dish) as overlays. The plates were allowed to dry at 30 °C for three hours followed by point inoculation with 2 µL of P. aeruginosa PAO1 (~10^8 CFU/mL) and incubation at 37 °C for 18 h. Quercetin was used as a control. Diameters of the swarming and swimming zones were measured after the incubation periods.
# [4] = test system: C. violaceum ATCC 31532; test: Violacein extraction assay (QS-mediated violacein production); assay type: cell-based; conditions: Chromobacterium violaceum, ATCC31532, 40 µM, C. violaceum ATCC 31532, mean ± SD of three independent tests; read-out: Inhibition-% of violacein production
# [5] = test system: P. aeruginosa (ATCC 9027, ATCC 15422 and PA01); test: Viable plate counts (bacterial growth); assay type: cell-based, Pseudomonas aeruginosa; conditions: 100 and 400 µM, 24 h
# Method: Effects of the leads on bacterial growth were assessed by performing viable plate counts. Compounds at final concentrations of 100 and 400 µM and cultures of P. aeruginosa (ATCC 9027, ATCC 15422 and PA01) and E. coli K-12 (10^6 CFU/mL) were simultaneously added to the 96-microtiter well plates (200 µL per well). Untreated bacteria were included in control wells. The plates were incubated at 37 °C, without shaking for 24 h. At the end of this period, bacterial suspensions were transferred from the wells to Eppendorf tubes, and the tubes were sonicated for 10 min (25 °C, 35 kHz, Sonorex Digitec water bath (Bandelin, Zurich, Switzerland)). Each suspension was serially diluted in LB and plated on LB agar. The number of viable bacteria in each test concentration was counted after overnight incubation at 37 °C. Results were expressed as CFU/mL.
# [6] = test system: P. aeruginosa PAO1; test: Swimming motility assay; assay type: cell-based; conditions: Pseudomonas aeruginosa, highest test concentration (400 µM)
# Method: as §2
# [7] = test system: P. aeruginosa ATCC 15422; test: Crystal violet staining assay, transition from microcolonies to fully formed biofilms; assay type: cell-based; conditions: Pseudomonas aeruginosa, ATCC15422, read-out: Inhibitory activity on the transition from microcolonies to fully formed biofilms
# Method: (§3) Crystal violet-based biomass staining assay was performed to assess the effects of the compounds on the transition from microcolonies to fully formed as recently described in [26] with minor modifications. Briefly, diluted cultures of exponentially grown P. aeruginosa ATCC 9027, ATCC 15442 and PA01, and E. coli K-12 (10^6 CFU/mL) were added to the 96-microtiter well plates (200 µL per well) to form microcolonies for two hours (37 °C). At the end of this period, bacterial suspensions were removed, compounds at a final concentration of 400 µM and fresh LB media were added, and plates were incubated at 37 °C, with shaking (200 rpm) for additional 22 h. After the incubation period, media was discarded and the biofilms were washed once with sterile Milli-Q (MQ)-water. Biomass was fixed with methanol for 15 min followed by staining with 0.23% (v/v) crystal violet (Sigma-Aldrich, Munich, Germany) solution prepared in MQ-water (200 µL per well) for 5 min. Thereafter, wells were washed twice with MQ-water and 200 µL of 96% ethanol was added to the wells. Absorbance was measured at 595 nm using Varioskan Flash after 1 h.
# [8] = test system: E. coli K-12; test: as above; assay type: cell-based; conditions: Escherichia coli, K12, E. coli K-12, mean ± SD, read-out: Inhibitory activity on the transition from microcolonies to fully formed biofilms
# Method: as §3
# [9] = test system: P. aeruginosa ATCC 9027; test: as above; assay type: cell-based; conditions: Pseudomonas aeruginosa, ATCC9027, P. aeruginosa ATCC 9027, mean ± SD, read-out: Inhibitory activity on the transition from microcolonies to fully formed biofilms
# Method: as §3
# [10] = test system: P. aeruginosa PAO1; test: as above; assay type: cell-based; conditions: Pseudomonas aeruginosa, P. aeruginosa PAO1, mean ± SD, read-out: Inhibitory activity on the transition from microcolonies to fully formed biofilms
# Method: as §3
Compound,Inhibition-% of cell viability ([1]; 10 µM),Inhibition-% of cell viability ([1]; 40 µM),Inhibition-% of cell viability ([1]; 100 µM),Inhibition-% of cell viability ([2]; 10 µM),Inhibition-% of cell viability ([2]; 40 µM),inhibition at 400 µM [3] [%],inhibition at 40 µM [4] [%],Bactericidal activity by viable plate counts [5],inhibition at 400 µM [6] [%],inhibition at 400 µM [7] [%],inhibition at 400 µM [8] [%],inhibition at 400 µM [9] [%],inhibition at 400 µM [10] [%],Inhibition-% of cell viability ([2]; 100 µM)
"CCC(=O)Oc1c(-c2ccccc2Cl)oc2ccccc2c1=O [Compound 2117, 2-(2-chlorophenyl)-4-oxochromen-3-yl propanoate]",N.I.,N.I.,11.2 ± 4.9%,N.I.,N.I.,72.1,> 90,Neither of the leads displayed any bactericidal activity,28.1,11.2 ± 1.8,51.3 ± 6.9,27.2 ± 6,42.3 ± 12.4,
"CCCCCCCCCC(=O)Oc1c(-c2ccc(OC)cc2)oc2ccccc2c1=O [Compound 2896, 2-(4-methoxyphenyl)-4-oxochromen-3-yl decanoate]",N.I.,N.I.,did not display any effects on the cell viability and N.I.,N.I.,N.I.,69.8,83.5 ± 1.4,Neither of the leads displayed any bactericidal activity,33.9,28.1 ± 15.1,14.3 ± 10.1,22.5 ± 3.2,11.6 ± 11.1,did not display any effects on the cell viability and N.I.
